Source: the supplement of paper PMC10307832

What was measured:
Assay in all cases: relative viability (nuclei count vs DMSO), 5 days (fraction); higher = more cells survive
[1] = compound: C[C@@H](C(=O)N[C@@H](C1CCCCC1)C(=O)N2CCC[C@H]2C(=O)N[C@@H]3[C@@H](CC4=CC=CC=C34)OCC#CC#CCO[C@@H]5CC6=CC=CC=C6[C@@H]5NC(=O)[C@@H]7CCCN7C(=O)[C@H](C8CCCCC8)NC(=O)[C@H](C)NC)NC [AZD5582] + CC1(C)CCC(c2ccc(Cl)cc2)=C(CN2CCN(c3ccc(C(=O)NS(=O)(=O)c4ccc(N[C@H](CCN5CCOCC5)CSc5ccccc5)c(S(=O)(=O)C(F)(F)F)c4)cc3)CC2)C1 [Navitoclax] (partner 0.5 µM)
Procedure, shortened: (§1)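 Relative viability is defined as nuclei in treated wells over nuclei in vehicle wells. Duplicate plates were run and medians reported. Lung cancer cell lines in 1536-well plates were dosed by pin tool one day after seeding, with one drug or with a fixed anchor-drug dose plus five library-drug doses (not always all listed) in √10 steps, and nuclei were counted after 5 days.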

[2] = compound: Cn1nnc2c(C(N)=O)ncn2c1=O [Temozolomide] + CCNC(=O)c1noc(-c2cc(C(C)C)c(O)cc2O)c1-c1ccc(CN2CCOCC2)cc1 [Luminespib] (partner 0.01 µM)
Procedure, shortened: as §1

[3] = compound: C[C@@H](C(=O)N[C@@H](C1CCCCC1)C(=O)N2CCC[C@H]2C(=O)N[C@@H]3[C@@H](CC4=CC=CC=C34)OCC#CC#CCO[C@@H]5CC6=CC=CC=C6[C@@H]5NC(=O)[C@@H]7CCCN7C(=O)[C@H](C8CCCCC8)NC(=O)[C@H](C)NC)NC [AZD5582] + N=C(N)NC(=N)NCCc1ccccc1 [Phenformin] (partner 250 µM)
Procedure, shortened: as §1

[4] = compound: Cn1nnc2c(C(N)=O)ncn2c1=O [Temozolomide] + Cc1nc(NC(=O)N2CCC[C@H]2C(N)=O)sc1-c1ccnc(C(C)(C)C(F)(F)F)c1 [Alpelisib] (partner 2 µM)
Procedure, shortened: as §1

Row | Cell Line | relative viability ([1]; first compound 0.001581 µM) | relative viability ([1]; first compound 0.005 µM) | relative viability ([1]; first compound 0.01581 µM) | relative viability ([1]; first compound 0.05 µM) | relative viability ([2]; first compound 0.2 µM) | relative viability ([2]; first compound 0.6325 µM) | relative viability ([2]; first compound 2 µM) | relative viability ([2]; first compound 6.325 µM) | relative viability ([2]; first compound 20 µM) | relative viability ([3]; first compound 0.001581 µM) | relative viability ([3]; first compound 0.005 µM) | relative viability ([3]; first compound 0.01581 µM) | relative viability ([3]; first compound 0.05 µM) | relative viability ([4]; first compound 0.2 µM) | relative viability ([4]; first compound 0.6325 µM) | relative viability ([4]; first compound 2 µM) | relative viability ([4]; first compound 6.325 µM) | relative viability ([4]; first compound 20 µM)
1 | SK-MES-1 | 1.22 | 1.3 | 1.25 | 1.15 | 0.939 | 0.823 | 0.777 | 0.831 | 0.772 | 0.6 | 0.678 | 0.649 | 0.655 | 1.06 | 0.919 | 1.06 | 0.836 | 0.778
2 | SW 1573 | 0.848 | 0.926 | 0.82 | 1.32 | 0.295 | 0.331 | 0.273 | 0.206 | 0.28 | 0.394 | 0.466 | 0.37 | 0.499 | 0.714 | 0.783 | 0.809 | 0.69 | 0.8
3 | UMC-11 | 0.333 | 0.299 | 0.335 | 0.321 | 1.05 | 1.07 | 1.17 | 0.971 | 0.66 | 0.281 | 0.301 | 0.298 | 0.412 | 1.08 | 0.829 | 1.02 | 0.934 | 0.518
